Reference: patent US11787802B2, “Dihydrobenzimidazolones for medical treatment” (C4 Therapeutics, Inc., priority 2017, dated 2023)
pKd: −log10 of the molar value.

molecular target: hCereblon(M1-L442)_hDDB1(M1-H1140) (Homo sapiens (Human), UniProt Q96SW2); experiment: Fluorescence direct binding protocol (tryptophan fluorescence titration); settings: fluorescence titration at 20° C., excited at 280 nm, recorded at 340 nm; protein 5.0 E−8 M; assay buffer 50 mM Hepes 7.4 200 mM NaCl; read-out: Fluorescence h-Cereblon_DDB1 Mean Kd_EQ
Procedure: Fluorescence Direct Binding Protocol
Determination of the affinities of compounds to protein containing one or more tryptophan is measurable by monitoring the fluorescence emission in direct mode. The measurements depending on the protein available amounts are performed either manually in a cuvette on ISS-PC1 photon counting spectrofluorometer or automatically in well plates on a fluorescence plate reader device. Fluorescence titrations are performed at 20° C. in the chosen binding assay buffer by using a defined constant protein concentration against ligand concentration variations. Small aliquots of known ligand concentration solubilized in DMSO were added and the fluorescence, excited at 280 nm, was recorded at 340 nm. The fluorescence intensity was corrected for protein dilution and for the filter effect (Birdsall et al.^69). The corrected fluorescence intensity was plotted against the ligand concentration and fitted using a four-parameter sigmoidal function, from which the equilibrium dissociation constant Kd was computed using the law of mass action assuming a 1:1 protein-ligand complex (Eftink, 1997^70).
Process • 1) Optimization of measurement parameters to minimize protein consumption and to minimize the dilution effect and the DMSO content • 2) Titration measurements of the protein against ligand by at least 12 titration steps to obtain a good s-curve fit • 3) Repeat the same titration measurements with the ligand alone to enable correction • 4) Check the stability of the protein once by titration against DMSO alone • 5) Determination of the molar extinction coefficients of the ligand at 280 and 340 nm with help of an UV-spectrophotometer • 6) Use Excel template for the correction of the measured raw data • 7) Use GraphPad Prism software for the quadratic binding fit and the KD evaluation.

Chain of hCereblon(M1-L442)_hDDB1(M1-H1140) (Q96SW2 whole entry): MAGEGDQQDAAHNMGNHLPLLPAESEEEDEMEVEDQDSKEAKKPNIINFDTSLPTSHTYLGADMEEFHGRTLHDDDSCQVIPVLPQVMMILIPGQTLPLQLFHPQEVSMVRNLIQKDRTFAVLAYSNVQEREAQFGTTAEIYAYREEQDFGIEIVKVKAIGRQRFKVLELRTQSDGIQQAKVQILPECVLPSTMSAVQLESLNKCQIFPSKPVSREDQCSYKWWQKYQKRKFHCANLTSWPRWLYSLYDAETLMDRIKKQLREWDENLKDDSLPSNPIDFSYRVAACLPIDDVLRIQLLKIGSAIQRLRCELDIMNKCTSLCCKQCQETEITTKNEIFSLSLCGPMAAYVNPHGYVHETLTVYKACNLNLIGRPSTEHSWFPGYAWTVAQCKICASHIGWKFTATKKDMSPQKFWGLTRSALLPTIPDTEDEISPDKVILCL
Chain of hCereblon(M1-L442)_hDDB1(M1-H1140) (Q16531 whole entry partner): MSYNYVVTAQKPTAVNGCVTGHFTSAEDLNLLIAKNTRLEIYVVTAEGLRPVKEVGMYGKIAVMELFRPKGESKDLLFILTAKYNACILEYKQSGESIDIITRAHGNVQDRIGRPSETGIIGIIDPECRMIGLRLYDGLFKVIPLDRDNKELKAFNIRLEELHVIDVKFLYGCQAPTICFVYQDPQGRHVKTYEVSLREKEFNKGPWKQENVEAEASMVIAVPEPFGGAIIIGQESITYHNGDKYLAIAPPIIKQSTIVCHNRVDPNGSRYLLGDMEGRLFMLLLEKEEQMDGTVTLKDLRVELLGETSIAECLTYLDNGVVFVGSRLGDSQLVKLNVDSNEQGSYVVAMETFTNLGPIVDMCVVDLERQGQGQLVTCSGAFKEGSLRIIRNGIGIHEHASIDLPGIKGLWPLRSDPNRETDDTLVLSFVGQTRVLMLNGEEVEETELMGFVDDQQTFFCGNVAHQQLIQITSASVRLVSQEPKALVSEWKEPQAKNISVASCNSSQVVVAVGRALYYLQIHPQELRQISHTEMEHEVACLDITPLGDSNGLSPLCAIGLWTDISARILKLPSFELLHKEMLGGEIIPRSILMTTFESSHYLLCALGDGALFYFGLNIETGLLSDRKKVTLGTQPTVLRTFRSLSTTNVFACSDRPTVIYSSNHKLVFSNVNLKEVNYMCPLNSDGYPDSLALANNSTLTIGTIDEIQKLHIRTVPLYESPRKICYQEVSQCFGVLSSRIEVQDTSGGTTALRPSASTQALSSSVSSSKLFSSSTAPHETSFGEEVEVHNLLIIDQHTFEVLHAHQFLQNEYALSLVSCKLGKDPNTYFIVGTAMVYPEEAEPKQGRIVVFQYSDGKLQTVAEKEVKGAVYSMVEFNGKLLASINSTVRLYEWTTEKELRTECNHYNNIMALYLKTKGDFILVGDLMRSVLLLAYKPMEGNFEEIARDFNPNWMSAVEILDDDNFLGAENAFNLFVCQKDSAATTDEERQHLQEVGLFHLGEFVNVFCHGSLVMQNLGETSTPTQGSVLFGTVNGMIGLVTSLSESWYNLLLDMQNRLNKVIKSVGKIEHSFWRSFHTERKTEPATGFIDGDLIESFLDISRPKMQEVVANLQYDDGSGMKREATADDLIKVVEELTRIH

First: CCc1nc2cc(C(=O)NC)ccc2n1-c1ccc2[nH]c(=O)[nH]c2c1 [Example 4, 2-Ethyl-N-methyl-2′-oxo-2′,3′-dihydro-1′H-[1,5′-bibenzo[d]imidazole]-5-carboxamide]
Second: CCCc1nc2cc(C(=O)NC)ccc2n1-c1ccc2[nH]c(=O)[nH]c2c1 [Example 14, N-Methyl-2′-oxo-2-propyl-2′,3′-dihydro-1′H-[1,5′-bibenzo[d]imidazole]-5-carboxamide]
The pKd of the first is 0.95 log units higher: 7.44 for the first, 6.49 for the second. The first binds more tightly here.

Going from `COC(=O)c1cccc2c1CCN2C(=O)Nc1ccc2[nH]c(=O)[nH]c2c1` [Example 89, Methyl 1-((2-oxo-2,3-dihydro-1H-benzo[d]imidazol-5-yl)carbamoyl)indoline-4-carboxylate] to `CNC(=O)c1cccc2c1CCN2C(=O)Nc1ccc2[nH]c(=O)[nH]c2c1` [Example 93, N4-Methyl-N1-(2-oxo-2,3-dihydro-1H-benzo[d]imidazol-5-yl)indoline-1,4-dicarboxamide], the pKd rises from 7.60 to 8.00 (0.40 log units).

First: CC(=O)NC1CCN(C(=O)c2ccc3[nH]c(=O)[nH]c3c2)CC1 [Example 29, N-(1-(2-Oxo-2,3-dihydro-1H-benzo[d]imidazole-5-carbonyl)piperidin-4-yl)acetamide]
Second: CC(=O)N1CCC(NC(=O)c2cnc3[nH]c(=O)[nH]c3c2)CC1 [Example 56, N-(1-Acetylpiperidin-4-yl)-2-oxo-2,3-dihydro-1H-imidazo[4,5-b]pyridine-6-carboxamide]
The pKd of the first is 1.00 log units lower: 7.70 for the first, 8.70 for the second. The second binds more tightly here.

Going from `O=C(NC1CCNCC1)c1ccc2[nH]c(=O)[nH]c2c1` [Example 51, 2-Oxo-N-(4-piperidyl)-1,3-dihydrobenzimidazole-5-carboxamide] to `O=c1[nH]c2ccc(N3CCNCC3)cc2[nH]1` [Example 58, 5-(Piperazin-1-yl)-1,3-dihydro-2H-benzo[d]imidazol-2-one], the pKd rises from 6.86 to 7.92 (1.06 log units).

Going from `O=C(c1cnc2[nH]c(=O)[nH]c2c1)N1CCc2ccccc21` [Example 55, 6-(Indoline-1-carbonyl)-1,3-dihydro-2H-imidazo[4,5-b]pyridin-2-one] to `O=C(Nc1ccccc1)c1cnc2[nH]c(=O)[nH]c2c1` [Example 67, 2-Oxo-N-phenyl-2,3-dihydro-1H-imidazo[4,5-b]pyridine-6-carboxamide], the pKd falls from greater than 9.00 to 8.30. The first binds more tightly here.

First: CC(=O)N1[C@@H]2CC[C@H]1CN(c1ccc3[nH]c(=O)[nH]c3c1)C2 [Example 63, 5-[rac-(1S,5R)-8-Acetyl-3,8-diazabicyclo[3.2.1]octan-3-yl]-1,3-dihydrobenzimidazol-2-one]
Second: CC(C)(C)OC(=O)N1CCC(S(=O)(=O)Nc2ccc3[nH]c(=O)[nH]c3c2)CC1 [Example 125, tert-Butyl 4-(N-(2-oxo-2,3-dihydro-1H-benzo[d]imidazol-5-yl)sulfamoyl)piperidine-1-carboxylate]
The pKd of the first is 0.60 log units lower: 7.10 for the first, 7.70 for the second.

First: CNC(=O)c1ccc2c(c1)nc(Cc1cccc(OC)c1)n2-c1ccc2[nH]c(=O)[nH]c2c1 [Example 28, 2-(3-Methoxybenzyl)-N-methyl-2′-oxo-2′,3′-dihydro-1′H-[1,5′-bibenzo[d]imidazole]-5-carboxamide]
Second: CNC(=O)c1ccc2c(c1)nc(C1(c3ccc(OC)cc3)CC1)n2-c1ccc2[nH]c(=O)[nH]c2c1 [Example 115, 2-(1-(4-Methoxyphenyl)cyclopropyl)-N-methyl-2′-oxo-2′,3′-dihydro-1′H-[1,5′-bibenzo[d]imidazole]-5-carboxamide]
The pKd of the first is 0.90 log units higher: 7.92 for the first, 7.02 for the second.

Compared with `CC(C)(C)OC(=O)N1CCc2c(C(=O)Nc3ccc4[nH]c(=O)[nH]c4c3)cccc21` [Example 143, tert-Butyl 4-((2-oxo-2,3-dihydro-1H-benzo[d]imidazol-5-yl)carbamoyl)indoline-1-carboxylate], `CC(=O)Nc1cccc(C(=O)Nc2ccc3[nH]c(=O)[nH]c3c2)c1` [Example 75, 3-Acetamido-N-(2-oxo-2,3-dihydro-1H-benzo[d]imidazol-5-yl)benzamide] is 1.35 log units higher in pKd: 6.80 for the first, 8.15 for the second. The second binds more tightly here.

`O=c1[nH]c2cc(-c3ccccc3OCc3ccccc3)cnc2[nH]1` [Example 104, 6-(2-(Benzyloxy)phenyl)-1,3-dihydro-2H-imidazo[4,5-b]pyridin-2-one] and `O=c1[nH]c2ccc(OCc3ccccc3)cc2[nH]1` [Example 154, 5-(Benzyloxy)-1,3-dihydro-2H-benzo[d]imidazol-2-one] are within 0.2 log units of each other in pKd: 7.85 for the first, 7.77 for the second.

Going from `O=c1[nH]c2ccc(NS(=O)(=O)c3coc4ccccc34)cc2[nH]1` [Example 137, N-(2-Oxo-2,3-dihydro-1H-benzo[d]imidazol-5-yl)benzofuran-3-sulfonamide] to `O=C(Nc1ccc2[nH]c(=O)[nH]c2c1)c1coc2ccccc12` [Example 68, N-(2-Oxo-2,3-dihydro-1H-benzo[d]imidazol-5-yl)benzofuran-3-carboxamide], the pKd rises from 7.66 to 8.05 (0.39 log units).

Compared with `O=c1[nH]c2ccc(-n3c(C(O)c4ccccc4)nc4ccccc43)cc2[nH]1` (stereo not drawn) [Example 85, 5-[2-[Hydroxy(phenyl)methyl]benzimidazol-1-yl]-1,3-dihydrobenzimidazol-2-one], `O=c1[nH]c2ccc(-n3c(-c4ccnc5ccccc45)nc4ccccc43)cc2[nH]1` [Example 7, 2-(Quinolin-4-yl)-1′H-[1,5′-bibenzo[d]imidazol]-2′(3′H)-one] is 0.95 log units lower in pKd: 8.52 for the first, 7.57 for the second.

Going from `CNC(=O)c1ccc2c(c1)nc(-c1cc[nH]c1)n2-c1ccc2[nH]c(=O)[nH]c2c1` [Example 66, N-Methyl-2′-oxo-2-(1H-pyrrol-3-yl)-2′,3′-dihydro-1′H-[1,5′-bibenzo[d]imidazole]-5-carboxamide] to `CNC(=O)c1ccc2c(c1)nc(-c1ccncc1)n2-c1ccc2[nH]c(=O)[nH]c2c1` [Example 11, N-Methyl-2′-oxo-2-(pyridin-4-yl)-2′,3′-dihydro-1′H-[1,5′-bibenzo[d]imidazole]-5-carboxamide], the pKd rises from 7.29 to 8.10 (0.81 log units). The second binds more tightly here.

Compared with `CN(C(=O)c1cnc2[nH]c(=O)[nH]c2c1)c1ccccc1` [Example 76, N-Methyl-2-oxo-N-phenyl-2,3-dihydro-1H-imidazo[4,5-b]pyridine-6-carboxamide], `Cc1ccccc1-c1ccccc1C(=O)Nc1ccc2[nH]c(=O)[nH]c2c1` [Example 122, 2′-Methyl-N-(2-oxo-2,3-dihydro-1H-benzo[d]imidazol-5-yl)-[1,1′-biphenyl]-2-carboxamide] is 1.25 log units lower in pKd: 7.39 for the first, 6.14 for the second. The first binds more tightly here.

First: CNC(=O)c1ccc2c(c1)nc(-c1cnc[nH]1)n2-c1ccc2[nH]c(=O)[nH]c2c1 [Example 15, 2-(1H-Imidazol-4-yl)-N-methyl-2′-oxo-2′,3′-dihydro-1′H-[1,5′-bibenzo[d]imidazole]-5-carboxamide]
Second: CNC(=O)c1ccc2c(c1)nc(C1(c3ccccc3)CC1)n2-c1ccc2[nH]c(=O)[nH]c2c1 [Example 114, N-Methyl-2′-oxo-2-(1-phenylcyclopropyl)-2′,3′-dihydro-1′H-[1,5′-bibenzo[d]imidazole]-5-carboxamide]
The pKd of the first is 0.79 log units lower: 7.31 for the first, 8.10 for the second. The second binds more tightly here.

`O=c1[nH]c2ccc(-c3ccc(-n4cccc4)cc3)cc2[nH]1` [Example 41, 5-(4-Pyrrol-1-yl-phenyl)-1,3-dihydro-benzoimidazol-2-one] and `O=C(Nc1cccc(F)c1)Nc1ccc2[nH]c(=O)[nH]c2c1` [Example 127, 1-(3-Fluorophenyl)-3-(2-oxo-2,3-dihydro-1H-benzo[d]imidazol-5-yl)urea] are within 0.2 log units of each other in pKd: 7.74 for the first, 7.59 for the second.

Compared with `CNC(=O)c1ccc2c(c1)nc(-c1cc(-c3cncn3C)nc3ccccc13)n2-c1ccc2c(c1)n(C)c(=O)n2C` [Example 17, N,1′,3′-Trimethyl-2-(2-(1-methyl-1H-imidazol-5-yl)quinolin-4-yl)-2′-oxo-2′,3′-dihydro-1′H-[1,5′-bibenzo[d]imidazole]-5-carboxamide], `Cc1sc2c(c1C)C(c1ccc(Cl)cc1)=N[C@@H](CC(=O)NCCOCCOCCNC(=O)c1ccc3c(c1)nc(-c1ccnc4ccccc14)n3-c1ccc3[nH]c(=O)[nH]c3c1)c1nnc(C)n1-2` [Example C, (S)—N-(2-(2-(2-(2-(4-(4-Chlorophenyl)-2,3,9-trimethyl-6H-thieno[3,2-f][1,2,4]triazolo[4,3-a][1,4]diazepin-6-yl)acetamido)ethoxy)ethoxy)ethyl)-2′-oxo-2-(quinolin-4-yl)-2′,3′-dihydro-1′H-[1,5′-bibenzo[d]imidazole]-5-carboxamide] is 0.34 log units higher in pKd: 7.38 for the first, 7.72 for the second. The second binds more tightly here.

First: O=c1[nH]c2ccc(N3CCN(c4ccccn4)CC3)nc2[nH]1 [Example 40, 5-[4-(2-Pyridyl)piperazin-1-yl]-1,3-dihydroimidazo[4,5-b]pyridin-2-one]
Second: O=C(Nc1ccc2[nH]c(=O)[nH]c2c1)[C@H]1CCCc2ccccc21 [Example 71, (S)—N-(2-Oxo-2,3-dihydro-1H-benzo[d]imidazol-5-yl)-1,2,3,4-tetrahydronaphthalene-1-carboxamide]
The pKd of the first is 0.35 log units higher: 8.15 for the first, 7.80 for the second.

Compared with `CNC(=O)c1ccc2c(c1)nc(C1CCC(OC)CC1)n2-c1ccc2[nH]c(=O)[nH]c2c1` (stereo not drawn) [Example 131, 2-(4-Methoxycyclohexyl)-N-methyl-2′-oxo-2′,3′-dihydro-1′H-[1,5′-bibenzo[d]imidazole]-5-carboxamide], `CNC(=O)c1ccc2c(c1)nc(C(C)C)n2-c1cnc2[nH]c(=O)[nH]c2c1` [Example 79, 2-Isopropyl-N-methyl-1-(2-oxo-1,3-dihydroimidazo[4,5-b]pyridin-6-yl)benzimidazole-5-carboxamide] is 0.40 log units higher in pKd: 8.00 for the first, 8.40 for the second. The second binds more tightly here.
